System: soybean (Glycine max)
Test: Test Example 1: soybean yield (dry grain mass) in field after one foliar spray
Type: in vivo
Protocol: An ascorbic acid aqueous solution prepared by dissolving ascorbic acid in water and an ascorbic acid aqueous solution prepared by dissolving ascorbic acid in deionized water were prepared, and the influence of the ascorbic acid dissolved in water on the application effect for soybean (Glycine max) was examined.
The influence of one foliar spray of 500 mass ppm ascorbic acid on the soybean yield was evaluated. The evaluated test plots 1 to 3 are as shown below. • 1 plot: control (no application) • 2 plot: foliar spray of 500 mass ppm ascorbic acid (dissolved in tap water) • 3 plot: foliar spray of 500 mass ppm ascorbic acid (dissolved in deionized water)
The cultivation of soybean was carried out in a field in Tochigi Prefecture, and the soybean cultivar used was “Sato no Hohoemi.” Of the field, a ridge with a width of 2 m excluding the perimeter was used as one plot, and foliar spray treatment was carried out. […]
The ascorbic acid used was “Food Additive Grade Vitamin C (L-ascorbic acid) Fine Mesh TypeSSS” manufactured by Fuso Chemical Co. Ltd. An aqueous solution of 500 mass ppm ascorbic acid was dissolved in tap water or deionized water for production. […] The dry grain mass was measured as yield data.
After calculating the average grain weight of each plant in one plot, the mean and the standard deviation of three plots were calculated (FIG. 1).

O=C1O[C@H]([C@@H](O)CO)C(O)=C1O [ascorbic acid, (R)-3,4-dihydroxy-5-((S)-1,2-dihydroxyethyl)furan-2(5H)-one]
effects of ascorbic acid on seed weight (500 mass ppm dissolved in tap water): effects of ascorbic acid disappear | effects of tap water and deionized water on the seed weight (500 mass ppm, 20 mL per plant, day 60 after sowing, tap water vs deionized water): different effects

— patent publication US20250280826A1, “PLANT GROWTH PROMOTER” (KAO CORPORATION, priority 2022, published 2025)
